# Results reported in patent US12668599B2, “Heterobifunctional compounds and methods of treating disease” (Halda Therapeutics OpCo, Inc., priority 2023, dated 2026).
# What was measured:
# [1] = tested on: T47D cells; assay: Cellular growth inhibition assay for T47D cells (CellTiter-Glo 2.0, 72 hours); type: cell-based, human; details: Homo sapiens, T47D, 72 h
# Protocol: Exemplary compounds were tested for ability to inhibit the proliferation of T47D cells. T47D cells are a commercially available human breast cancer cell line.
# T47D cells were purchased from American Type Cell Culture (ATCC Cat #HTB-133) and then seeded on poly-D-lysine coated, black clear-bottom 384-well plates at 3000/well in 25 μL Dulbecco's Modified Eagle Medium (DMEM) supplemented with 10% w/w Fetal bovine serum (FBS), 0.2 units/mL recombinant human insulin (Gibco Cat #12585014), and 1% w/w Pen-Strep. Pen-Strep is a commercially available mixture of penicillin G and streptomycin, which is used in mammalian cell culture media to prevent bacterial contamination. Dulbecco's Modified Eagle Medium (DMEM) supplemented with 10% w/w fetal bovine serum (FBS), 0.2 units/mL recombinant human insulin, and 1% w/w Pen-Strep is herein referred to as Treatment Medium. Following seeding of cells in the plates, the plates were spun at 300×g for 30 seconds, then equilibrated to room temperature for 30 minutes, and then deposited in a humidified tissue culture incubator maintained at 37° C. with 5% CO2.
# At 24 hours after seeding of the cells, dilutions of test compound were prepared in DMSO and dissolved in Treatment Medium, to achieve a final DMSO concentration of 0.5% w/w, thereby providing the Test Compound Solution. A 25 μL aliquot of the Test Compound Solution was added to cells in the well plates. An equal volume of a solution containing DMSO and Treatment Medium was used as a negative control. Following treatment of cells with Test Compound Solution or said equal volume of a solution containing DMSO and Treatment Medium, the plates were spun at 300×g for 30 seconds, and then left in an incubator for 72 hours.
# At the end of the treatment duration, cell viability was quantified with CellTiter-Glo 2.0 reagent (Promega Cat #G9243). For this purpose, plates were equilibrated to room temperature for 30 minutes, and then 25 μL of CellTiter-Glo 2.0 reagent was added to cells in the plate wells. Plates were then agitated on a shaker for two minutes at 500 rpm and subsequently incubated at room temperature for 10 minutes. Following incubation, the plates were spun at 3000×g for 30 seconds, then sealed with an optical adhesive cover, and luminescence readings were measured with an En Vision Plate Reader (Perkin Elmer).
# Data was normalized using zero luminescence for baseline. A four-parameter non-linear regression curve fit was applied to dose-response data in GraphPad Prism data analysis software to determine the half-maximal growth inhibitory concentration (GI50) for each test compound.
# [2] = tested on: androgen receptor WT, T878A, L702H and H875Y and BRD4 protein; assay: Ternary complex formation in TRex293 cells with doxycycline inducible androgen receptor (AR capture / HRP-BRD4 antibody ELISA); type: cell-based; details: Trex293 cells engineered to express wtAR and the T878A, L702H and H875Y AR mutants, 1 hour treatment, FIG. 2
# Protocol: Compound II-5 was tested for ability to form a ternary complex containing Compound II-5, androgen receptor, and bromodomain-containing protein 4 (BRD4) protein using TRex293 cells induced to express elevated levels of androgen receptor.
# TRex293 cells expressing doxycycline inducible androgen receptor WT, T878A, L702H and H875Y were generated and cultured in DMEM medium supplemented with 10% heat inactivated fetal bovine serum, and 1% pen-strep (culture medium). 25,000 cells were seeded per well in 100 μL of phenol red free DMEM containing 10% CSS, 1% pen strep, and 10 ng/mL doxycycline in a clear 96-well poly-D-lysine coated plate. Plates were incubated at 37° C. Black, opaque 96-well MaxiSorp plates were coated with 50 μL of androgen receptor antibody diluted in phosphate buffered saline (PBS). The coated plates were sealed and placed at 4° C. overnight. Plates coated with androgen receptor antibody were washed three times with 200 μL 1× tris -buffered saline plus 0.1% Tween20 (TBST), then blocked with 200 μL of 3% bovine serum albumin in TBST for 1 hour at room temperature. Test compound titrations were diluted in culture medium. 100 μL of the test compound/media mixture was added to the cell plate. After treatment, plates were incubated for 1 hour. Then, cells were washed once with 250 μL 1× PBS. […] Fluorescent endpoint read was conducted on a SpectraMax plate reader.
# [3] = molecular target: T1, androgen receptor and BRD4 protein (Homo sapiens, UniProt O60885+P10275); assay: Tumor TR-FRET trimer assay on tumors of the PK/PD Castrate VCaP model; type: in vivo, CB17.SCID mice; details: PK/PD Castrate VCaP Tumor Xenograft Model
# T1 construct: Tumors obtained from the Castrate VCaP Model were lysed; from tissue; host or cells: VCaP tumour xenografts grown in castrated CB17.SCID mice
# Protocol: 5M VCaP cells were subcutaneously implanted into CB17.SCID mice in 50% Matrigel (Corning). Mice were castrated under anesthesia once tumor volumes reached 100 mm^3. Tumors were then allowed to reach an average of approximately 150 mm^3 before randomization into efficacy arms. Tumors were measured twice weekly for Tumor Growth Inhibition (TGI) calculation. For PK/PD analysis, tumors were allowed to reach an average of 400 mm^3, before dosing the mice with test compound by oral gavage (n=5) for seven days. Mice were sacrificed 24 hours following the final dose, and tumors were harvested for downstream analysis. Plasma samples were collected from all dosed mice 2 hours following the final dose to determine test compound exposure by LC-MS/MS. […] the United States Food and Drug Administration for treatment of prostate cancer ([…]).
# Tumors obtained from the Castrate VCaP Model were lysed in Cell Signaling Technology lysis buffer supplemented with protease/phosphatase inhibitors and nuclease. Each tumor was lysed in 10 μL of lysis buffer per mg of tumor and placed in a TissueLyser for 4 minutes at 20 Hz. Each sample was spun down at 16000×g for 10 minutes, the supernatant was removed, and a BCA assay was run to quantify the total protein concentration in each sample. In a white opaque 384 well plate each sample was diluted in supplemented CST lysis buffer to 48 and 24 μg of protein in a total volume of 16 μL. 4 μL of a 1:1 mixture of anti-androgen receptor and anti-BRD4 antibodies with donor and acceptor fluorophores were mixed into each well containing tumor samples. The plate was spun down at 300×g for one minute, placed on a plate shaker at 400 RPM for 10 minutes, spun down at 300×g for one minute, then sealed with a plate seal and stored overnight. Approximately 16 hours after adding antibodies, the plate was read on an Envision plate reader. The ratiometric value of each well was calculated by dividing the acceptor signal by the donor signal and multiplying by 10,000.
# T1 sequence (P10275 whole entry, other chains not shown): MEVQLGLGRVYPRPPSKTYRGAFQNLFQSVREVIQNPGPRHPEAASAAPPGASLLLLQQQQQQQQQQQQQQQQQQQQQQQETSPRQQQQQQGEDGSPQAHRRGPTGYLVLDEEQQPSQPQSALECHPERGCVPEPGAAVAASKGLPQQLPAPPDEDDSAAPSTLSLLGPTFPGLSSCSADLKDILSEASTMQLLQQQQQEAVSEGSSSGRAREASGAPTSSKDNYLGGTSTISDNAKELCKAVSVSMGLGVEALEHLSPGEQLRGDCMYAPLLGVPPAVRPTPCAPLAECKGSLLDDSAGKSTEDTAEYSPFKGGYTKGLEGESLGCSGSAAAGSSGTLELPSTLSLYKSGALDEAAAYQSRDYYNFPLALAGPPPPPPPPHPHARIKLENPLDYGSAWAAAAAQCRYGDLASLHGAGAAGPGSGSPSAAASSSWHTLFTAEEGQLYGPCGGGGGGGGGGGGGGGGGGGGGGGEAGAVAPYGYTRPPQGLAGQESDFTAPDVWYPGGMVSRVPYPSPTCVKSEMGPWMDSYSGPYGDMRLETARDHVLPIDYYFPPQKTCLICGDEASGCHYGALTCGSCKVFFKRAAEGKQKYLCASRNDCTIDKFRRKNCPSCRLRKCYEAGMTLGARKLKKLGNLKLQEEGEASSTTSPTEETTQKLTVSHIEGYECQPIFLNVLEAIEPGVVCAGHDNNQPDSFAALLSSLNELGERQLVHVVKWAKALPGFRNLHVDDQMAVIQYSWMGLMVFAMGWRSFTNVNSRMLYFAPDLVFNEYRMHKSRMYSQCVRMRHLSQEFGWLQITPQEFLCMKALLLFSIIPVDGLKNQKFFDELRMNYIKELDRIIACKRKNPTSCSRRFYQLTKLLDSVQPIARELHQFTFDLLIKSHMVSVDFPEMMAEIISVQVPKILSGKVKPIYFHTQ
smiles,measurement,setting,value
"COc1cc(O[C@H]2C(C)(C)[C@H](NC(=O)c3cnc(N4CCC5(CC4)CC(Oc4ccc(C6=N[C@@H](Cc7ncco7)c7nnc(C)n7-c7sc(C)c(C)c76)cc4)C5)nc3)C2(C)C)ccc1C#N [II-5, N-[(1r,3r)-3-(4-cyano-3-methoxy-phenoxy)-2,2,4,4-tetramethyl-cyclobutyl]-2-[2-[4-[(9S)-4,5,13-trimethyl-9-(oxazol-2-ylmethyl)-3-thia-1,8,11,12-tetrazatricyclo[8.3.0.0^2,6]trideca-2 (6),4,7,10,12-pentaen-7-yl]phenoxy]-7-azaspiro[3.5]nonan-7-yl]pyrimidine-5-carboxamide]",GI50,[1],< 500 nM
same,"ternary complex formation between Compound II-5, androgen receptor, and BRD4",[2],detected
same,"ternary complex formation between compound, androgen receptor, and BRD4 protein in tumors","[3]; oral gavage for seven days, varying doses, FIG. 4",observed
same,"ternary complex formation between compound, androgen receptor, and BRD4 protein in tumors","[3]; Compound II-5 and Compound B at the same dose and dosing frequency, FIG. 20",observed
